# Measurements as given in a melting point compilation (Tetko et al.).
row,melting point [°C],Compound
1,104 to 105,Cc1onc(-c2ccccc2)c1I
2,87,Fc1c(F)c(F)c(Sc2c(F)c(F)c(F)c(F)c2F)c(F)c1F
3,82 to 87,Cc1cnc(Cl)c(N)c1
4,278 to 279,Nc1cc2[nH]c(=O)c(C(=O)c3ccccc3)cc2cc1C=O
5,55,CC(C)(C)C(CO)CO
6,100,COC(=O)c1ccc(N(C)C)cc1
7,-58,CC1CCCCS1 (configuration not stated)
8,159,CNCC(O)c1cccc(NS(C)(=O)=O)c1 (configuration not stated)
9,78.6 to 80.4,CC1(C)N=C(c2ccccc2)C(C)(C)N1O
10,63,CC(C=CC=C(C)C=CC1=C(C)CCCC1(C)C)=CC=O
11,119,Cc1ccc(C(C)(C)C(=O)ON)cc1
12,150,C/C=C/C1Nn2c(nnc2-c2ccc([N+](=O)[O-])cc2)S1 (configuration not stated)
13,183,CC(C)(C)c1nnc(N)s1
14,180,CC12CCC(=O)C=C1CCC1C2CCC2(C)CCCC12O (configuration not stated)
15,241,Cc1nc(/C(C#N)=N/Nc2ccccc2Cl)sc1/N=N/c1ccc(Br)cc1
16,42 to 45,CCOC(=O)Cn1c(Br)nc(Cl)c1Cl
17,63 to 64,Brc1cccc(Oc2ccccn2)c1
18,236 to 238,N#Cc1sc2nc(-c3ccccc3)cc(C(F)(F)F)c2c1N
19,150 to 151,CC(C)(C)OC(=O)N1CCN(c2ccc(I)cc2)CC1
20,103 to 105,NC(=O)C(F)(F)C(F)(F)C(F)(F)F
21,63,O=C(O)Cc1ccccc1F
22,41 to 42,S=C=Nc1ccc(Oc2ccccc2)nc1

# The next lines start with the molecule.
row,Compound,melting point [°C]
1,S=C=Nc1ccccc1Br,20
2,N#CC(c1ccc(Sc2ccccc2)nn1)c1c(Cl)cccc1Cl (configuration not stated),190
3,O=C1CCN(C(=O)c2ccccc2)CC1,56 to 59
4,CC(=O)OCC(=O)C1(OC(C)=O)CCC2(C)C(CCC3C4CCC(=O)C4(C)CCC32)C1 (configuration not stated),141
5,Nc1nc(=O)n(C2CSC(CO)O2)cc1F (configuration not stated),138
6,O=[N+]([O-])c1ccc(S(=O)(=O)N2CCCC2)cc1,151 to 153
7,Cc1c(C(C)C2NCC(C)CC2O)ccc2c1CC1C2CC=C2CC(O)CCC21C (configuration not stated),206
8,O=C(c1ccc(C(=O)C(Cl)(Cl)Cl)cc1)C(Cl)(Cl)Cl,121
9,Brc1ccc(Oc2ccccc2)c(Br)c1,< 20
10,O=C(O)C=Cc1ccsc1,155 to 156
11,COc1ccc(C=O)cc1Br,51
12,O=C1Cc2cc3c(cc21)CC3=O,237
13,CCCCCCCCCCCCOC1OC(CO)C(OC2OC(CO)C(O)C(O)C2O)C(O)C1O (configuration not stated),217
14,CCOC(=O)c1cc(C(=O)O)c([N+](=O)[O-])cc1[N+](=O)[O-],154
15,ClCc1c(Cl)cccc1Cl,38
16,FC(F)(F)c1cccnc1Br,38
17,Brc1cccc2c1Oc1ccccc1O2,104
18,Cc1cc(O)c(C)c(C)c1C,85.3
19,Cc1cc2ccccc2nc1Cl,83 to 84
20,CC(Oc1ccc(Oc2cnc3cc(Cl)ccc3n2)cc1)C(=O)OCC1CCCO1 (configuration not stated),64
21,O=C(CCl)N[C@@H](Cc1ccc(O)cc1)C(=O)O,153 to 154
22,N#Cc1ccccc1CBr,72
23,Cc1ncccc1O,168
24,CNC(=Nc1ncccc1C)SC,25 to 27
25,O=C=Nc1ccc(Br)cc1,41
26,COc1cc2cc[nH]c2cc1OC,157
27,O=C(O)c1ccc(Cl)cc1[N+](=O)[O-],144
28,C#CC1(O)CCC2(C)C(C1)CC1(OCCO1)C1C3CCC(=O)C3(C)CCC12 (configuration not stated),308
29,O=C(O)C(F)(F)C(F)(F)C(F)(F)C(F)(F)C(F)(C(F)(F)F)C(F)(F)F,13
30,CCOC(=O)C(CCc1ccccc1)NC(C)C(=O)N1CCCC1C(=O)O (configuration not stated),144
